As usually defined, the solubility is how much of the substance goes into solution per volume.

The nature of data set [1]: solubility in aqueous media / water. Format: physicochemical. The conditions noted are these: even in the presence of surfactants.
The conditions of data set [2]: in vivo.

On to `COc1cc(N2CCN(C3CCN(c4ccc(F)c5cccnc45)CC3)CC2)c2ncccc2c1` [free base, 6-methoxy-8-[4-(1-(5-fluoro)-quinolin-8-yl-piperidin-4-yl)-piperazin-1-yl]-quinoline], for which, in data set [1], the solubility is around 0.4 µg/mL. Consider `COc1cc(N2CCN(C3CCN(c4ccc(F)c5cccnc45)CC3)CC2)c2ncccc2c1.O=C(O)CCC(=O)O.O=C(O)CCC(=O)O.O=C(O)CCC(=O)O` [trisuccinate salt, 6-methoxy-8-[4-(1-(5-fluoro)-quinolin-8-yl-piperidin-4-yl)-piperazin-1-yl]-quinoline trisuccinate], for which the bioavailability entry in data set [2] is “improved bioavailability over the free base”. For `COc1cc(N2CCN(C3CCN(c4ccc(F)c5cccnc45)CC3)CC2)c2ncccc2c1.O=C(O)CCC(=O)O.O=C(O)CCC(=O)O.O=C(O)CCC(=O)O` [Form A, 6-methoxy-8-[4-(1-(5-fluoro)-quinolin-8-yl-piperidin-4-yl)-piperazin-1-yl]-quinoline trisuccinate], the hygroscopicity result (believed) is recorded as “substantially non-hygroscopic”. Also, the “conversion of crystalline form in water” value (upon dispersion in water for a few minutes in ambient conditions) is reported as “convert to Form D”. Regarding `COc1cc(N2CCN(C3CCN(c4ccc(F)c5cccnc45)CC3)CC2)c2ncccc2c1.O=C(O)CCC(=O)O.O=C(O)CCC(=O)O.O=C(O)CCC(=O)O` [Form B, 6-methoxy-8-[4-(1-(5-fluoro)-quinolin-8-yl-piperidin-4-yl)-piperazin-1-yl]-quinoline trisuccinate], the “conversion of crystalline form in THF/heptane slurry” value (slurried for two hours in a mixture of THF and heptane in an ice/water bath) is “convert to Form A”.

These data come from patent US20080045510A1, “Succinate salts of 6-methoxy-8-[4-(1-(5-fluoro)-quinolin-8-yl-piperidin-4-yl)-piperazin-1-yl]-quinoline and crystalline forms thereof” (Wyeth, priority 2006, published 2008).
